# “Also recorded” adds a separate entry of the source. Where two headings read alike, the source gives them in different places.
# Columns and labels:
# [1] = Cytotoxicity (MTT assay) in BV-2 microglial cells; assay type: cell-based; settings: mouse
# [2] = system: NO production in LPS-activated BV-2 microglial cells; test: NO production (Griess reaction) in LPS-stimulated BV-2 microglial cells; assay type: cell-based, mouse; settings: for IC50: Mus musculus, BV-2, BV-2 microglial cells, pretreated 1 h, 100 ng/mL LPS (footnote 24 h; text 12 h), means ± SDs (n = 3)
# Description: The anti-inflammatory effects of the fourteen compounds (1–14) isolated from E. hamiltonianus were evaluated in activated BV-2 microglial cells by the production of NO and proinflammatory cytokines. […] […] The compounds were continuously assessed to determine whether they suppressed the expression of iNOS and COX-2 in LPS-stimulated BV-2 microglial cells. The cells were stimulated with LPS in the presence of these compounds at various concentrations, and the expression levels of iNOS and COX-2 were determined by Western blotting. […] Thus, compound 3 may be considered a potential anti-inflammatory agent.
# For the Aβ-Hela-APPsw model, Hela cells were stably transfected with an APP carrying the Swedish mutation (APPsw) using BioT (Bioland Scientific LLC, Paramount, CA, USA) according to the manufacturer’s instructions, which was provided by Prof. Tae-Wan Kim (Department of Pathology, Columbia University of Medical Center, New York, NY 10032, USA). APPsw-transfected HeLa cells were grown in DMEM supplemented with 10% fetal bovine serum (FBS; Thermo Fisher Scientific, Lafayette, CA, USA), 1% penicillin/streptomycin (Thermo Fisher Scientific, Lafayette, CA, USA), 260 μg/mL Zeocin, and 400 μg/mL G418. The cells were maintained at 37 °C under a humidified atmosphere of 5% CO2. The stock sample solution was dissolved in DMSO and kept at −20 °C and diluted to the final concentration in fresh medium before each experiment. […] The EZ-Cytox kit (DAEILLAB, Cheongwon, Republic of Korea) was applied to detect the cell viability, following the manufacturer’s instructions, and measurements were taken by a microplate reader (BIO-TEK® Dower-Wave; BioTek, Winooski, VT, USA) under absorbance at 450 nm. The results were presented as the percentage of MTT reduction, compared with the control group as 100%. For the LPS-induced microglia model, the BV-2 mouse microglia cell line was provided by Prof. Lee Sung Jung’s research team in the College of Medicine, Seoul National University, and was cultured in DMEM-F12 with 5% FBS and 1% penicillin/streptomycin at 37 °C under a humidified atmosphere containing 5% CO2. And the cell viability assay was performed using the Aβ-Hela-APPsw model.
# […] The media were collected and centrifuged at 13,000 rpm for the removal of dead cells. The supernatants were collected and mixed with an equal volume (50 μL) of Griess reagents (1% sulfanilamide and N-(1-naphthyl) ethylenediamine dihydrochloride in 2.5% H3PO4) for 5 min at room temperature, and the Nitric Oxide concentration was measured at 540 nm using a microplate reader and compared with the sodium nitrite standard curve.
# [3] = Storage stability of isolated compound by LC-MS; assay type: physicochemical; settings: stored 27 days (compound 2) or a significant length of time (compound 1), dried powder and DMSO solution
# Description: In this study, qualitative profile analysis was performed on the 30% EtOH crude extract of the leaves of E. hamiltonianus using HPLC. The isolated phytochemicals, 1–14, were used as standards and compared to the crude extract profile represented by a high-performance liquid chromatogram (Figure 3). […] With comparative UV area normalization, compound 2 was confirmed as a pure compound initially when isolated (Figure S3.8). […] For reconfirmation, LC-MS analyses of both the dried powdered form of the compound when isolated and the compound in DMSO solution were performed (Figure S3.9), both sets of results showing signs of degradation. Compound 2 was degraded into three separate peaks, and the original compound 2 indicated by m/z 759.2 was verified by LC-MS analysis, and the peaks of 2a and 2b were indicated by m/z 465.1 and 627, respectively. […] Due to the close resemblance of compound 2 to compound 1, it was investigated in the same manner after a significant length of time.
# [4] = system: Aβ42 production in APPsw-transfected HeLa cells; test: Aβ42 production (ELISA kit) in APPsw-transfected HeLa cells; assay type: cell-based; settings: for IC50: 8 h, APPsw-transfected HeLa cells, means ± SDs (n = 3)
# Description: APPsw-transfected HeLa cells were cultured with the isolated compounds or DMSO in Dulbecco’s modified Eagle medium (DMEM, Welgene, Gyeongsan-si, Republic of Korea) for 8 h, and then the cell culture supernatants were collected for the following analyses. For the detection of Aβ secretion, kits for Aβ42 (KHB3442) and Aβ40 (KHB3482) were purchased from the Invitrogen Company and used according to the supplier’s instructions.
# For the Aβ-Hela-APPsw model, Hela cells were stably transfected with an APP carrying the Swedish mutation (APPsw) using BioT (Bioland Scientific LLC, Paramount, CA, USA) according to the manufacturer’s instructions, which was provided by Prof. Tae-Wan Kim (Department of Pathology, Columbia University of Medical Center, New York, NY 10032, USA). APPsw-transfected HeLa cells were grown in DMEM supplemented with 10% fetal bovine serum (FBS; Thermo Fisher Scientific, Lafayette, CA, USA), 1% penicillin/streptomycin (Thermo Fisher Scientific, Lafayette, CA, USA), 260 μg/mL Zeocin, and 400 μg/mL G418. The cells were maintained at 37 °C under a humidified atmosphere of 5% CO2. The stock sample solution was dissolved in DMSO and kept at −20 °C and diluted to the final concentration in fresh medium before each experiment. For the cell viability assay, Hela cells were cultured in 96-well plates for 24 h and then various concentrations of comp 27 (0–10 μM) were treated for 12 h. The EZ-Cytox kit (DAEILLAB, Cheongwon, Republic of Korea) was applied to detect the cell viability, following the manufacturer’s instructions, and measurements were taken by a microplate reader (BIO-TEK® Dower-Wave; BioTek, Winooski, VT, USA) under absorbance at 450 nm. The results were presented as the percentage of MTT reduction, compared with the control group as 100%. For the LPS-induced microglia model, the BV-2 mouse microglia cell line was provided by Prof. Lee Sung Jung’s research team in the College of Medicine, Seoul National University, and was cultured in DMEM-F12 with 5% FBS and 1% penicillin/streptomycin at 37 °C under a humidified atmosphere containing 5% CO2. And the cell viability assay was performed using the Aβ-Hela-APPsw model.
# iNOS = test: Western blot of LPS-induced iNOS expression in BV-2 microglial cells; assay type: cell-based, mouse; settings: LPS-stimulated BV-2 microglial cells, various concentrations (1.0, 2.0, 4.0 µM)
# Description: The anti-inflammatory effects of the fourteen compounds (1–14) isolated from E. hamiltonianus were evaluated in activated BV-2 microglial cells by the production of NO and proinflammatory cytokines. BV-2 microglial cells were stimulated with 0.1 µg/mL LPS for 12 h in the presence of the compounds at various concentrations, and the levels of NO in the culture supernatants were measured using Griess reactions. […] The compounds were continuously assessed to determine whether they suppressed the expression of iNOS and COX-2 in LPS-stimulated BV-2 microglial cells. The cells were stimulated with LPS in the presence of these compounds at various concentrations, and the expression levels of iNOS and COX-2 were determined by Western blotting. […] Thus, compound 3 may be considered a potential anti-inflammatory agent.
# The total protein samples (10 μg) were loaded in sodium dodecyl sulfate polyacrylamide gel electrophoresis (SDS–PAGE) gels with 10% acrylamide/bis and transferred to polyvinylidene difluoride membranes (Millipore, Burlington, MA, USA). Then, the membranes were blocked with 5% silky milk dissolved in TBST (Tris Buffered saline Tween) for 1 h under room temperature and incubated overnight at 4 °C with specific primary antibodies (1:1000). After being washed with TBST, the membranes were incubated with secondary HRP-conjugated IgG (1:2000) at room temperature for 1 h and visualized using enhanced chemiluminescence (ECL) reagents (Thermo Fisher Scientific, Lafayette, CA, USA). Densitometry analysis of the bands was performed with the fusion solo system (Vilber, Paris, France). The band densities were determined as the intensities of protein by TotalLab TL120 software v2009 (TotalLab, Newcastle, UK).
# [5] = BV-2 microglial cells, MTT assay, read-out: IC50 Value (µM) Cytotoxicity
SMILES,IC50 [2],"IC50 ([4]; Homo sapiens, HeLa)","IC50 at 12 h [1, 5]",also measured
"COc1cc([C@H]2OC[C@H]3[C@@H]2CO[C@@H]3c2cc(OC)c(O[C@@H]3O[C@H](CO)[C@@H](O)[C@H](O)[C@H]3O)c(OC)c2)cc(OC)c1O[C@@H]1O[C@H](CO)[C@@H](O)[C@H](O)[C@H]1O [Compound 9, liriodendrin]",,,,IC50 at 12 h [1]: > 100 µM
"CCCCOC(=O)C(CC(=O)O)OC(=O)C=Cc1ccc(O)cc1 (stereo not shown) [Compound 10, p-coumaroylmalic acid 1-butyl ester]",> 100 µM,,> 100 µM,
"O=c1occc2c(O)cc(O)cc12 [Compound 11, 5,7-dihydroxyisocoumarin]",> 100 µM,,> 100 µM,
"OC[C@H]1O[C@@H](OC[C@H]2O[C@@H](OCc3ccccc3)[C@H](O)[C@@H](O)[C@@H]2O)[C@H](O)[C@@H](O)[C@@H]1O [Compound 14, benzyl gentiobioside]",17.4 ± 2.77 µM,53.1 to 65.4 µM,> 100 µM,LPS-induced iNOS protein expression (in words) (iNOS): suppressed; also recorded: effectively downregulated; Inhibitory effect on NO production (in words) ([2]; LPS-stimulated BV-2 microglial cells): effectively downregulated; also recorded: good inhibitory effects
"C[C@@H]1C[C@H]2[C@@H]3CCC4=CC(=O)C=C[C@]4(C)[C@@]3(F)[C@@H](O)C[C@]2(C)[C@@]1(O)C(=O)CO [Dexamethasone, reference compound]",1.24 ± 0.104 µM,,> 100 µM,
"COc1cc2c(OC)c3c(c(-c4ccc5c(c4)OCO5)c2cc1OC)C(=O)OC3 [Justicidine A, reference compound]",,,,IC50 [4]: 1 ± 0.043 µM

# More lines, main results first:
IC50 [2],"IC50 ([4]; Homo sapiens, HeLa)",SMILES,"IC50 at 12 h [1, 5]",also measured
> 100 µM,,"COc1cc(-c2oc3cc(O[C@@H]4O[C@H](CO)[C@@H](O)[C@H](O)[C@H]4O)cc(O)c3c(=O)c2O[C@@H]2O[C@H](CO)[C@@H](O)[C@H](O)[C@H]2O[C@@H]2OC[C@@H](O)[C@H](O)[C@H]2O)ccc1O [Compound 1, isorhamnet-in-3-O-(2″-O-(β-D-xylopyranosyl)-β-D-glucopyranoside)-7-O-β-D-glucopyranoside]",> 100 µM,Degradation on storage (in words) [3]: did not show any sign of degradation
> 100 µM,> 100 µM,"O=c1c(O[C@@H]2O[C@H](CO)[C@@H](O)[C@H](O)[C@H]2O[C@@H]2OC[C@@H](O)[C@H](O)[C@H]2O)c(-c2ccc(O)c(O)c2)oc2cc(O[C@@H]3O[C@H](CO)[C@@H](O)[C@H](O)[C@H]3O)cc(O)c12 [Compound 2, quercetin-3-O-(2″-O-(β-D-xylopyranosyl)-β-D-glucopyranoside)-7-O-β-D-glucopyranoside]",> 100 µM,Degradation on storage (in words) [3]: showed signs of degradation
> 100 µM,,"COc1cc(-c2oc3cc(O[C@@H]4O[C@H](CO)[C@@H](O)[C@H](O)[C@H]4O)cc(O)c3c(=O)c2O[C@@H]2O[C@H](CO)[C@@H](O)[C@H](O)[C@H]2O)ccc1O [Compound 5, isorhamnetin-3,7-di-O-β-D-glucopyranoside]",> 100 µM,
> 100 µM,> 100 µM,"O=c1c(O[C@@H]2O[C@H](CO)[C@@H](O)[C@H](O)[C@H]2O[C@@H]2OC[C@@H](O)[C@H](O)[C@H]2O)c(-c2ccc(O)c(O)c2)oc2cc(O)cc(O)c12 [Compound 6, quercetin-3-O-sambubioside]",> 100 µM,
> 100 µM,,"O=c1c(O[C@@H]2O[C@H](CO)[C@@H](O)[C@H](O)[C@H]2O)c(-c2ccc(O)c(O)c2)oc2cc(O)cc(O)c12 [Compound 7, isoquercetin]",> 100 µM,
> 100 µM,,"O=c1c(O[C@@H]2O[C@H](CO)[C@@H](O)[C@H](O)[C@H]2O)c(-c2ccc(O)c(O[C@@H]3O[C@H](CO)[C@@H](O)[C@H](O)[C@H]3O)c2)oc2cc(O)cc(O)c12 [Compound 8, quercetin-3,3′-di-O-β-D-glucopyranoside]",> 100 µM,
> 100 µM,> 100 µM,"O=C(O)/C=C/c1ccc(O)c(O[C@@H]2O[C@H](CO)[C@@H](O)[C@H](O)[C@H]2O)c1 [Compound 12, caffeic acid trans-3-O-β-D-glucopyranoside]",> 100 µM,
> 100 µM,53.1 to 65.4 µM,"COC(=O)/C=C/c1ccc(O)c(O[C@@H]2O[C@H](CO)[C@@H](O)[C@H](O)[C@H]2O)c1 [Compound 13, methyl trans-3-O-(β-D-glucopyranosyl) caffeate]",> 100 µM,IC50 [4]: 65.4 ± 6.71 µM; Inhibitory effect on Aβ production (in words) ([4]; Hela-swAPP cells): reduced Aβ levels
